{"source": "paper PMC12036875", "about": "“Mitochondria-targeting natural product rhein conjugated with dichloroacetate as the dual inhibitor of glycolysis and oxidative phosphorylation to off energize cancer cells and induce ROS storm” (Theranostics, 2025)", "key": {"[1]": {"test_system": "phospho-Ser^293 PDHA1 protein in 4T1 cells", "test": "Western blot of phospho-Ser293 PDHA1", "assay_type": "cell-based, Mouse", "conditions": "6.25 μM, 24 h, vs control", "description": "Then, the phospho-Ser^293 PDHA1 protein level in 4T1 cells, which is regulated by PDK1, was further analyzed with western blot (Figure 2C). […] The conjugate successfully altered glycolysis of 4T1 cells via PDK-PDH axis.\n4T1 cells were seeded in 6-well plates at a density of 20 × 10^4 cells per well and cultured for 24 h. Then the cells were treated with rhein, DCA, R + D and Rhein-DCA conjugate, each at a concentration of 6.25 μM for 24 h. Cells were washed twice with PBS and lysed by RIPA total protein extraction solution containing multiple protease inhibitors for 30 min while being maintained on ice. The lysate was centrifuged at 9391 G for 10 min at 4 °C to obtain the total protein solution. The concentrations of total protein were determined with BCA Protein Assay Kit. The protein was further denatured with 5 × protein loading buffer at 100 °C for 15 min. Sodium dodecyl sulfate polyacrylamide gel electrophoresis was conducted to separate the protein and transferred it to PVDF membranes. The PVDF membranes were blocked with 5% skim milk for 30 min at room temperature and incubated with indicated primary antibodies: Anti-Cytochrome C Rabbit pAb (1:1000); Anti-β-actin Rabbit pAb (1:1000); or Anti-PDHA1 Rabbit mAb (phosphoS^293) (1:1000) overnight at 4 °C. The membranes were incubated with HRP conjugated Goat Anti-Rabbit IgG (H+L) (1:5000), respectively, for 30 min at room temperature and then analyzed by chemiluminescence (Clinx,6100)."}, "[2]": {"test_system": "4T1 tumor", "test": "In vivo antitumor effect, 4T1 tumor xenograft model", "design": "species or system Balb/c mice", "conditions": "for tumor H&E and TUNEL staining: 20 mg/kg oral; for tumor H&E and TUNEL staining / tumor growth compared with vehicle group: 24 days; for tumor growth compared with vehicle group: oral gavage daily, n = 5", "description": "The antitumor efficiency of Rhein-DCA conjugate in vivo was explored using the female Balb/c mice with 4T1 tumor xenografts model. Briefly, 4T1-tumor bearing mice were randomly divided into vehicle, rhein, DCA, R + D and Rhein-DCA conjugate groups when the tumor became apparent (n = 5). Mice were treated daily with vehicle (2.85% anhydrous ethanol / 10% cremophor / 0.02% 0.1 M HCl / 87.15% saline) and rhein, DCA, R + D and Rhein-DCA conjugate (20 mg/kg) by oral gavage for 24 days. The body weight and tumor volume of mice were monitored and recorded every two days. […] The photograph and the weight information of all excised tumor xenografts further visually confirmed the antitumor effect of Rhein-DCA conjugate in vivo (Figure 6C-D). […] Due to suppression of tumor growth, the survival of mice treated with Rhein-DCA conjugate was improved in contrast to vehicle group (Figure S22).\nBalb/c female mice (6 weeks) and Sprague-Dawley (SD) rats were purchased from Hubei provincial laboratory animal research center (Wuhan, P. R. China). All related animal experiments were approved by the Animal Welfare Committee of the Animal Experiment Center of Wuhan University. All Balb/c mice were shaved two days in advance and then subcutaneously injected with 4T1 cells (5 × 10^6 cells in 50 μL of PBS per mouse) into the back of the right leg. The 4T1 tumor bearing mice were randomly divided into five groups (5 mice per group) which containing vehicle, rhein, DCA, R + D and Rhein-DCA groups when the tumor volumes reached about 100~120 mm^3. The tumor size was calculated with the following formula:\nSubsequently, mice were orally treated with vehicle (2.85% anhydrous ethanol / 10% cremophor / 0.02% HCl (0.1 M) / 87.15% saline) and rhein, DCA, R + D and Rhein-DCA (20 mg/kg, suspended in 2.85% anhydrous ethanol / 10% cremophor / 0.02% HCl (0.1 M) / 87.15% saline) every day. The body weight and tumor size changes of each mouse were measured and recorded every two days.\n(§1) After 24 days, the mice were euthanized, and then tumors were excised to photographing and weighting. The tumors in each group were performed with TUNEL (green fluorescence) and H&E assay. In addition, immunohistochemical staining was conducted on the tumor tissue to determine the pPDHA1-Ser^293 protein level. Besides, immunofluorescence staining was used to detect the expression of HMGB1 protein in the tumor."}, "[3]": {"test_system": "4T1 tumor tissue", "test": "Lactate detection in tumor tissue (ELISA)", "assay_type": "in vivo, Balb/c mice", "conditions": "20 mg/kg oral, 24 days", "text": "(§2) The TAMs are the prominent components in the TEM and play a critical role in tumoral immunosuppression. Repolarization of protumor M2 phenotype into antitumor M1 phenotype is promising for malignant tumors. On the one hand, as a key metabolite fueling M2 polarization, lactate is very important in modulating the polarization state of macrophages within the tumor microenvironment. To verify that Rhein-DCA conjugate reprogrammed the metabolism of cells on solid tumors, we analyzed the expression of pPDHA1-Ser^293 protein in tumor tissues with immunohistochemical staining (IHC) (Figure 7A). […] The end product lactate of glycolysis decreased 20%, consistent with DCA's ability to reverse the Warburg effect. […] On the other hand, the ICD behavior of cancer cells also can activate TAMs into M1 polarization. Then, the release of HMGB1 was evaluated to assess the ICD effect in vivo with immunofluorescence staining (IF) (Figure 7C).\nTumor tissues were collected and homogenized in ice-cold PBS (1:10, w/v). The tissue was disrupted using sonication in ice bath (power 400 W, the duration of sonication is 3 s, the interval duration of 3 s, total sonication time of 20 min). The homogenate was centrifuged at 5000 G for 10 min at 4 °C to obtain the supernatant. The lactate content was analyzed with a lactate ELISA kit according to the manufacturer's protocol. The results were normalized to the weight of the tumor and reported as µmol lactate/g tissue."}, "[4]": {"test_system": "4T1 tumor tissue", "test": "IHC of pPDHA1-Ser293 and IF of HMGB1 in tumor slices", "assay_type": "in vivo, Balb/c mice", "conditions": "20 mg/kg oral, 24 days; for pPDHA1-Ser293 protein level in tumor tissue (IHC): vs vehicle", "text": "as §2, §1"}}, "data": [{"smiles": "O=C(O)C(Cl)Cl", "note": "[DCA, Dichloroacetate]", "values": [{"measurement": "phospho-Ser293 PDHA1 protein level (western blot)", "setting": "[1]", "value": "slightly downregulation"}, {"measurement": "tumor H&E and TUNEL staining", "setting": "[2]", "value": "mild apoptosis and necrosis"}, {"measurement": "tumor growth compared with vehicle group", "setting": "[2]; 20 mg/kg", "value": "slight inhibition"}, {"measurement": "decrease of tumor lactate", "setting": "[3]; vs vehicle", "value": 20, "unit": "%"}, {"measurement": "HMGB1 localisation in tumor slices (IF)", "setting": "[4]", "value": "almost all of HMGB1 overlapped with nucleus"}, {"measurement": "pPDHA1-Ser293 protein level in tumor tissue (IHC)", "setting": "[4]", "value": "obvious down-expression"}]}, {"smiles": "O=C(O)c1cc(O)c2c(c1)C(=O)c1cccc(O)c1C2=O", "note": "[Rhein, 4,5-dihydroxyanthraquinone-2-carboxylic acid]", "values": [{"measurement": "phospho-Ser293 PDHA1 protein level (western blot)", "setting": "[1]", "value": "no obvious down-regulated trend"}, {"measurement": "tumor H&E and TUNEL staining", "setting": "[2]", "value": "mild apoptosis and necrosis"}, {"measurement": "tumor growth compared with vehicle group", "setting": "[2]; 20 mg/kg", "value": "slight inhibition"}, {"measurement": "tumor lactate level, in words", "setting": "[3]", "value": "reduced tumor lactate levels"}, {"measurement": "HMGB1 localisation in tumor slices (IF)", "setting": "[4]", "value": "almost all of HMGB1 overlapped with nucleus"}, {"measurement": "pPDHA1-Ser293 protein level in tumor tissue (IHC)", "setting": "[4]", "value": "did not significantly alter"}]}, {"smiles": "O=C(OCCOC(=O)C(Cl)Cl)c1cc(O)c2c(c1)C(=O)c1cccc(O)c1C2=O", "note": "[Rhein-DCA]", "values": [{"measurement": "phospho-Ser293 PDHA1 protein level (western blot)", "setting": "[1]", "value": "lowest expression"}, {"measurement": "tumor H&E and TUNEL staining", "setting": "[2]", "value": "more extensive tissue necrosis and considerable cell apoptosis"}, {"measurement": "survival of mice in contrast to vehicle group", "setting": "[2]; 20 mg/kg, oral", "value": "improved"}, {"measurement": "tumor growth compared with vehicle group", "setting": "[2]; 20 mg/kg", "value": "significant inhibition"}, {"measurement": "tumor lactate level as percentage of the vehicle group", "setting": "[3]", "value": 44, "unit": "%"}, {"measurement": "HMGB1 localisation in tumor slices (IF)", "setting": "[4]", "value": "mostly appeared outside the nucleus with weak intensity"}, {"measurement": "pPDHA1-Ser293 protein level in tumor tissue (IHC)", "setting": "[4]", "value": "down-expression"}]}]}
